Measured values as given in patent US20240140980A1, “HETEROCYCLIC INHIBITORS OF CD73 FOR TREATMENT OF DISEASE” (Teon Therapeutics, Inc., priority 2022, published 2024).

Experiments:
[1] = biological target: T1, CD73 (Homo sapiens (Human), UniProt P21589); assay: Cellular CD73 Assay (primary human CD3+ T-cells with AMP); format: cell-based; details: primary human peripheral blood CD3+ T-cells, 40 μM AMP, 3 days; readout (cell division or IL-2/IFN-γ) not specified for the column
Description: Primary human peripheral blood CD3+ T-cells obtained from AllCells were thawed and cultured for 24 h in a complete growth medium (Stemline T-cell expansion medium, Sigma #S1694) supplemented with 1 mM L-glutamine, 50 IU/mL of IL-2 and 25 μL/mL of Dynabeads™ Human T-Activator CD3/CD28 (Thermo-Fisher #11161D) at a density of 10^6 cells/mL. Then, cells were labeled with 1.25 μM Cell Trace Violet (Thermo-Fisher #C34557) according to the manufacturer's instructions. Labeled cells were resuspended in a warm complete growth medium and plated onto U-bottom 96-well plates at 25,000 cells/90 μL/well. Next, 500× serial compound dilutions were prepared in DMSO in a 8-point 3-fold titration and then diluted 1:25 into a complete growth medium, generating 20× compound dilutions. Then, 5 μL of 20× compound dilutions was added to the cells and incubated for 60 min at 37° C. After this, 5 μL of 20×AMP was added to a final concentration of 40 μM. Treated cells were cultured for 3 days at 37° C., 5% CO2. Thereafter, cells were gently pelleted by centrifugation, and supernatants were collected and frozen at −80° C. for subsequent cytokine analysis. Cell pellets were resuspended in 100 μL of PBS/2% FBS and gently pipetted up and down to produce a single cell suspension. Then, 3 μL of 7-AAD (BD Biosciences #559925) was added to each well and plates were incubated on ice for 5 min. Cells were then washed and resuspended in 150 μL of PBS/2% FBS. Divided and non-divided live cells were quantified by Attune NxT flow cytometer. Cell Trace Violet-labeled cells cultured without a T-cell activator were used as the nondividing control.
For IL-2 and IFN-γ cytokine analysis, supernatants were thawed on ice, diluted 1:10 in the buffer. The concentration of cytokines was determined using Meso Scale Discovery according to the manufacturer's instructions (Meso Scale Discovery). The EC50 values were determined using a four-parameter nonlinear regression curve fit (GraphPad Prism Version 9.2, GraphPad Software Inc., San Diego, CA).

[2] = biological target: T1, CD73; assay: Biochemical CD73 Assay (Malachite Green free phosphate detection); details: recombinant human CD73 2 nM, AMP 40 μM, 45 min at 37° C.
Description: Activity of recombinant CD73 was measured by quantification of free phosphate using the Malachite Green detection system (R&D Systems #DY996). Test compounds were solubilized in DMSO and dispensed into 384-well polystyrene plates in a 8-point 3× titration in duplicates. Then, 10 μL of 4 nM human CD73 enzyme (Novoprotein #C446) in phosphate-free assay buffer (10 mM HEPES, pH 7.4, 125 mM NaCl, 1 mM KCl, 10 mM glucose, 2 mM MgCl2) was added to the plates. The compound and enzyme were incubated for 15 min at RT. Then, 10 μL of 80 μM AMP (Sigma Aldrich #A1752) in the assay buffer was added and the reaction mixture was incubated for 45 min at 37° C. The final concentrations of CD73 and AMP in the reaction were 2 nM and 40 μM, respectively. The reaction was stopped by adding 5 μL of Malachite Green reagent A and incubating for 10 min at RT, followed by addition of 5 μL of Malachite Green reagent B and incubation for 20 min at RT. Absorbance was then read at 620 nm with the Flexstation spectrophotometer (Molecular Devices). The IC50 values were determined using a four-parameter nonlinear regression curve fit.

T1 sequence (P21589 27-574): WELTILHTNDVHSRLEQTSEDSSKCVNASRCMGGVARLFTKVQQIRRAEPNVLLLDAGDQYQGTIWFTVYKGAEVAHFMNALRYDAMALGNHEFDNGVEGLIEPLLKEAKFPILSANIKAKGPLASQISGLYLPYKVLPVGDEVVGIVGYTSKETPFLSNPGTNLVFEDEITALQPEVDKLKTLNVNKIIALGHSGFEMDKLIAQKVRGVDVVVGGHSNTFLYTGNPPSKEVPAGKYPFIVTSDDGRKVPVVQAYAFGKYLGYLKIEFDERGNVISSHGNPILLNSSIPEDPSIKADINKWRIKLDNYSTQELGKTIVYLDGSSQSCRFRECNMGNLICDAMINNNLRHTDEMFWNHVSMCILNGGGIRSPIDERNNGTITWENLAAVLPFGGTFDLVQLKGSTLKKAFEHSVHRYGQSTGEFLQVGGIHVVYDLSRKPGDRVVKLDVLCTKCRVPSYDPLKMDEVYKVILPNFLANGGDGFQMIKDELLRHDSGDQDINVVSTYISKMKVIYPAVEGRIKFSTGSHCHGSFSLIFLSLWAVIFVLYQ

Compound	EC50 [1]	IC50 [2]
COC[C@@](OC[C@H]1O[C@@H](n2ncc3c(NC4CCCC4)nc(Cl)nc32)[C@H](O)[C@@H]1O)(C(=O)N=[S@@](C)(N)=O)P(=O)(O)O [Example 3, ((2S)-1-((Amino(methyl)(oxo)-λ^6-sulfaneylidene)amino)-2-(((2R,3S,4R,5R)-5-(6-chloro-4-(cyclopentylamino)-1H-pyrazolo[3,4-d]pyrimidin-1-yl)-3,4-dihydroxytetrahydrofuran-2-yl)methoxy)-3-methoxy-1-oxopropan-2-yl)phosphonic Acid]	1.5 nM	1 nM
COC[C@@](OC[C@H]1O[C@@H](n2ncc3c(NC4CCCC4)nc(Cl)nc32)[C@H](O)[C@@H]1O)(C(=O)N=[S@](C)(=O)NC(=O)OC)P(=O)(O)O [Example 18, ((S)-2-(((2R,3S,4R,5R)-5-(6-Chloro-4-(cyclopentylamino)-1H-pyrazolo[3,4-d]pyrimidin-1-yl)-3,4-dihydroxytetrahydrofuran-2-yl)methoxy)-3-methoxy-1-(((S)-((methoxycarbonyl)amino)(methyl)(oxo)-λ^6-sulfaneylidene)amino)-1-oxopropan-2-yl)phosphonic Acid]	1 nM	0.5 nM
COC[C@@](OC[C@H]1O[C@@H](n2ncc3c(NC4CCCC4)nc(Cl)nc32)[C@H](O)[C@@H]1O)(C(=O)N=[S@@](C)(=O)NC(=O)C1CC1)P(=O)(O)O [Example 11, ((S)-2-(((2R,3S,4R,5R)-5-(6-Chloro-4-(cyclopentylamino)-1H-pyrazolo[3,4-d]pyrimidin-1-yl)-3,4-dihydroxytetrahydrofuran-2-yl)methoxy)-1-(((R)-cyclopropanecarboxamido(methyl)(oxo)-λ^6-sulfaneylidene)amino)-3-methoxy-1-oxopropan-2-yl)phosphonic Acid]	0.9 nM	0.77 nM
COC[C@@](OC[C@H]1O[C@@H](n2ncc3c(NC4CCCC4)nc(Cl)nc32)[C@H](O)[C@@H]1O)(C(=O)N=S(C)(=O)NC(=O)C(C)C)P(=O)(O)O (single isomer, unassigned) [Example 16]	1.34 nM	0.78 nM
CNC(=O)N[S@](C)(=O)=NC(=O)[C@@](COC)(OC[C@H]1O[C@@H](n2ncc3c(NC4CCCC4)nc(Cl)nc32)[C@H](O)[C@@H]1O)P(=O)(O)O [Example 9, ((S)-2-(((2R,3S,4R,5R)-5-(6-Chloro-4-(cyclopentylamino)-1H-pyrazolo[3,4-d]pyrimidin-1-yl)-3,4-dihydroxytetrahydrofuran-2-yl)methoxy)-3-methoxy-1-(((R)-methyl(3-methylureido)(oxo)-λ^6-sulfaneylidene)amino)-1-oxopropan-2-yl)phosphonic Acid]	1.57 nM	0.9 nM
CNC(=O)N[S@@](C)(=O)=NC(=O)[C@@](COC)(OC[C@H]1O[C@@H](n2ncc3c(NC4CCCC4)nc(Cl)nc32)[C@H](O)[C@@H]1O)P(=O)(O)O [Example 10, ((S)-2-(((2R,3S,4R,5R)-5-(6-Chloro-4-(cyclopentylamino)-1H-pyrazolo[3,4-d]pyrimidin-1-yl)-3,4-dihydroxytetrahydrofuran-2-yl)methoxy)-3-methoxy-1-(((S)-methyl(3-methylureido)(oxo)-λ^6-sulfaneylidene)amino)-1-oxopropan-2-yl)phosphonic Acid]	0.72 nM	0.31 nM
COC[C@@](OC[C@H]1O[C@@H](n2ncc3c(NC4CCCC4)nc(Cl)nc32)[C@H](O)[C@@H]1O)(C(=O)N=[S@](C)(=O)NC(C)=O)P(=O)(O)O [Example 17, ((S)-1-(((S)-Acetamido(methyl)(oxo)-λ^6-sulfaneylidene)amino)-2-(((2R,3S,4R,5R)-5-(6-chloro-4-(cyclopentylamino)-1H-pyrazolo[3,4-d]pyrimidin-1-yl)-3,4-dihydroxytetrahydrofuran-2-yl)methoxy)-3-methoxy-1-oxopropan-2-yl)phosphonic Acid]	0.98 nM	0.58 nM
COC[C@@](OC[C@H]1O[C@@H](n2ncc3c(NC4CCCC4)nc(Cl)nc32)[C@H](O)[C@@H]1O)(C(=O)N=[S@@](C)(=O)NC(=O)OC)P(=O)(O)O [Example 7, ((S)-2-(((2R,3S,4R,5R)-5-(6-Chloro-4-(cyclopentylamino)-1H-pyrazolo[3,4-d]pyrimidin-1-yl)-3,4-dihydroxytetrahydrofuran-2-yl)methoxy)-3-methoxy-1-(((R)-((methoxycarbonyl)amino)(methyl)(oxo)-λ^6-sulfaneylidene)amino)-1-oxopropan-2-yl)phosphonic Acid]	–	1.7 nM
CCC(=O)NS(C)(=O)=NC(=O)[C@@](COC)(OC[C@H]1O[C@@H](n2ncc3c(NC4CCCC4)nc(Cl)nc32)[C@H](O)[C@@H]1O)P(=O)(O)O (stereo partly drawn) [Example 14, ((2S)-2-(((2R,3S,4R,5R)-5-(6-Chloro-4-(cyclopentylamino)-1H-pyrazolo[3,4-d]pyrimidin-1-yl)-3,4-dihydroxytetrahydrofuran-2-yl)methoxy)-3-methoxy-1-((methyl(oxo)(propionamido)-λ^6-sulfaneylidene)amino)-1-oxopropan-2-yl)phosphonic Acid]	1.15 nM	0.74 nM
COC[C@@](OC[C@H]1O[C@@H](n2ncc3c(NC4CCCC4)nc(Cl)nc32)[C@H](O)[C@@H]1O)(C(=O)N=[S@](C)(N)=O)P(=O)(O)O [Example 1, ((2S)-1-((Amino(methyl)(oxo)-λ^6-sulfaneylidene)amino)-2-(((2R,3S,4R,5R)-5-(6-chloro-4-(cyclopentylamino)-1H-pyrazolo[3,4-d]pyrimidin-1-yl)-3,4-dihydroxytetrahydrofuran-2-yl)methoxy)-3-methoxy-1-oxopropan-2-yl)phosphonic Acid]	0.51 nM	0.94 nM
COC[C@@](OC[C@H]1O[C@@H](n2ncc3c(NC4CCCC4)cc(Cl)nc32)[C@H](O)[C@@H]1O)(C(=O)N=[S@@](C)(=O)NC(=O)C(C)C)P(=O)(O)O [Example 33, ((2S)-2-(((2R,3S,4R,5R)-5-(6-chloro-4-(cyclopentylamino)-1H-pyrazolo[3,4-b]pyridin-1-yl)-3,4-dihydroxytetrahydrofuran-2-yl)methoxy)-1-((isobutyramido(methyl)(oxo)-λ^6-sulfaneylidene)amino)-3-methoxy-1-oxopropan-2-yl)phosphonic Acid]	–	11 nM
COC[C@](OC[C@H]1O[C@@H](n2ncc3c(NC4CCCC4)nc(Cl)nc32)[C@H](O)[C@@H]1O)(C(=O)N=[S@@](C)(N)=O)P(=O)(O)O [Example 4, ((2R)-1-((Amino(methyl)(oxo)-λ^6-sulfaneylidene)amino)-2-(((2R,3S,4R,5R)-5-(6-chloro-4-(cyclopentylamino)-1H-pyrazolo[3,4-d]pyrimidin-1-yl)-3,4-dihydroxytetrahydrofuran-2-yl)methoxy)-3-methoxy-1-oxopropan-2-yl)phosphonic Acid]	–	275 nM
COC[C@@](OC[C@H]1O[C@@H](n2ncc3c(NC4CCCC4)nc(Cl)nc32)[C@H](O)[C@@H]1O)(C(=O)N=S(C)(=O)NC(=O)C1COC1)P(=O)(O)O (single isomer, unassigned) [Example 21]	–	5.1 nM
